Assay results reported in patent US20230219904A1 (SYNGENTA CROP PROTECTION AG, priority 2020, published 2023).

Assays:
Type in all cases: in vivo
[1] = tested on: Abutilon theophrasti (ABUTH); assay: Pre-emergence herbicidal glasshouse test (Table B1); conditions: evaluated after 13 days
Procedure, shortened: (§1)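 Damage is rated 13 days after treatment on a 1–5 scale (5 = 80–100%). Application, usually 500 g/h in acetone/water (50:50) with 0.5% Tween 20, is made one day post-sowing for pre-emergence or eight days for post-emergence; glasshouse at 24/16 °C, 14 h light, 65% humidity.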

[2] = tested on: Amaranthus retoflexus (AMARE); assay: as above; conditions: evaluated after 13 days
Procedure, shortened: as §1

[3] = tested on: Echinochloa crus-galh (ECHCG); assay: as above; conditions: evaluated after 13 days
Procedure, shortened: as §1

[4] = tested on: Ipomoea hederacea (IPOHE); assay: as above; conditions: evaluated after 13 days
Procedure, shortened: as §1

[5] = tested on: Setaria faberi (SETFA); assay: as above; conditions: evaluated after 13 days
Procedure, shortened: as §1

[6] = tested on: Abutilon theophrasti (ABUTH); assay: Post-emergence herbicidal glasshouse test (Table B1); conditions: applied at 125 g/ha, evaluated after 13 days
Procedure, shortened: as §1

[7] = tested on: Amaranthus retoflexus (AMARE); assay: as above; conditions: evaluated after 13 days
Procedure, shortened: as §1

[8] = tested on: Ipomoea hederacea (IPOHE); assay: as above; conditions: evaluated after 13 days
Procedure, shortened: as §1

[9] = tested on: Setaria faberi (SETFA); assay: as above; conditions: evaluated after 13 days
Procedure, shortened: as §1

[10] = tested on: Echinochloa crus-galh (ECHCG); assay: as above; conditions: evaluated after 13 days
Procedure, shortened: as §1

SMILES | PRE Application ABUTH, percentage damage on five-point scale ([1]; applied at 125 g/ha) | PRE Application AMARE, percentage damage on five-point scale ([2]; applied at 125 g/ha) | PRE Application ECHCG, percentage damage on five-point scale ([3]; applied at 125 g/ha) | PRE Application IPOHE, percentage damage on five-point scale ([4]; applied at 125 g/ha) | PRE Application SETFA, percentage damage on five-point scale ([5]; applied at 125 g/ha) | POST Application ABUTH, percentage damage on five-point scale [6] | POST Application AMARE, percentage damage on five-point scale ([7]; applied at 125 g/ha) | POST Application IPOHE, percentage damage on five-point scale ([8]; applied at 125 g/ha) | POST Application SETFA, percentage damage on five-point scale ([9]; applied at 125 g/ha) | POST Application ECHCG, percentage damage on five-point scale ([10]; applied at 125 g/ha) | PRE Application ABUTH, percentage damage on five-point scale ([1]; applied at 500 g/h) | PRE Application AMARE, percentage damage on five-point scale ([2]; applied at 500 g/h) | PRE Application ECHCG, percentage damage on five-point scale ([3]; applied at 500 g/h) | PRE Application IPOHE, percentage damage on five-point scale ([4]; applied) | PRE Application SETFA, percentage damage on five-point scale ([5]; applied at 500 g/h) | POST Application AMARE, percentage damage on five-point scale ([7]; applied at 500 g/h) | POST Application ECHCG, percentage damage on five-point scale ([10]; applied at 500 g/h) | POST Application IPOHE, percentage damage on five-point scale ([8]; applied at 500 g/h) | POST Application SETFA, percentage damage on five-point scale ([9]; applied at 500 g/h)
Cn1nnnc1NC(=O)c1ccc(OC(F)(F)F)c(NC(=O)C2(F)CC2)c1Cl [Compound 1.054] | 5 (5=80-100%) | 5 (5=80-100%) | 5 (5=80-100%) | 4 (4=60-79%) | 5 (5=80-100%) | 5 (5=80-100%) | 5 (5=80-100%) | 5 (5=80-100%) | 5 (5=80-100%) | – | – | – | – | – | – | – | – | – | –
CCC(=O)N(CC)c1c(OC(F)F)ccc(C(=O)Nc2nnnn2CC)c1Cl [Compound 1.095] | 5 (5=80-100%) | 5 (5=80-100%) | 5 (5=80-100%) | 4 (4=60-79%) | 4 (4=60-79%) | – | 5 (5=80-100%) | 4 (4=60-79%) | 5 (5=80-100%) | 5 (5=80-100%) | – | – | – | – | – | – | – | – | –
CCC(=O)Nc1c(OC(F)F)ccc(C(=O)Nc2nnnn2C)c1C(F)(F)F [Compound 1.096] | 3 (3=40-59%) | 4 (4=60-79%) | 1 (1=0-19%) | 3 (3=40-59%) | 1 (1=0-19%) | – | 4 (4=60-79%) | 3 (3=40-59%) | 3 (3=40-59%) | 4 (4=60-79%) | – | – | – | – | – | – | – | – | –
CCC(=O)N(C)c1c(OC(F)F)ccc(C(=O)Nc2nnnn2CC)c1Cl [Compound 1.097] | 5 (5=80-100%) | 5 (5=80-100%) | 5 (5=80-100%) | 5 (5=80-100%) | 4 (4=60-79%) | – | 4 (4=60-79%) | 4 (4=60-79%) | 5 (5=80-100%) | 4 (4=60-79%) | – | – | – | – | – | – | – | – | –
Cn1nnnc1NC(=O)c1ccc(OC(F)(F)C(F)F)c(NC(=O)C2CC2)c1Cl [Compound 1.110] | – | – | – | – | – | – | – | – | – | – | 3 (3=40-59%) | 5 (5=80-100%) | 5 (5=80-100%) | 1 (1=0-19%) | 5 (5=80-100%) | 5 (5=80-100%) | 5 (5=80-100%) | 5 (5=80-100%) | 5 (5=80-100%)
